Experimental findings from US11987575B2, “Tricyclic compounds as BCR-ABL inhibitors” (ASCENTAGE PHARMA (SUZHOU) CO., LTD., priority 2019, dated 2024) are described below.

For one test, the target named is BaF3(WT) (Homo sapiens, UniProt P00519). Kind of test: WST (CCK-8) anti-proliferative assay, BaF3 WT. Conditions: read-out: BaF3(WT); BaF3 WT cells, 72 h treatment, CCK-8 readout OD 450 nm.
The next test addresses BaF3 (T315I mutant) (Homo sapiens, UniProt P00519, T315I, cells depend on it). In words: WST (CCK-8) anti-proliferative assay, BaF3 T315I mutant. The settings on record: read-out: BaF3 (T315I mutant), 72 h treatment, CCK-8 readout OD 450 nm.

Procedure for BaF3 (T315I mutant): (§1) The anti-proliferative effect of representative compounds of the present disclosure was determined by a water-soluble tetrazolium (WST)-based assay using Cell Counting Kit-8 (CCK-8). Cells were seeded in 96-well plates and treated with different concentrations of test articles for 72 h. Each treatment was tested in triplicate. Briefly, a series of 9 concentrations were chosen for each test article and added at 100 μl/well into a 96-well plate. Each concentration was tested in triplicate. 100 μl of diluent was added into 3-6 wells in the same plate for cell control group, and another set of 3-6 wells was used as a blank control.
(§2) In each well, 100 μl of cell suspension (containing optimal cell numbers, which creates approximately 100% confluence of cells in control wells based on by the absorbance (OD) value) was dispensed into the same 96-well plate except for the blank well. The plate was then cultured at 37° C. in an incubator in an atmosphere with 5% CO2 for 72 h. At the end of the treatments, 20 μl/well of CCK-8 reagent was directly added to each well. The plate was then incubated at 37° C. in an incubator in an atmosphere with 5% CO2 for 2-4 hours.
(§3) The cells viability was calculated using the mean OD value of triplicated wells following the equation below: (OD sample−OD blank)/(OD cell control−OD blank)×100 IC50 values were calculated with Graphpad Prism 6.0 software using nonlinear regression (curve fitting) type data analysis.
Procedure for BaF3(WT): as §1, §2, §3

As to `CC(=O)N[C@@H]1CC[C@H]2c3cc(C(=O)Nc4ccc(OC(F)(F)Cl)cc4)cc(-c4ccn[nH]4)c3N(CC(C)(C)C)[C@@H]12` [Compound 22-A, (3R,3aR,8bS)-3-acetamido-N-(4-(chlorodifluoromethoxy)phenyl)-4-neopentyl-5-(1H-pyrazol-5-yl)-1,2,3,3a,4,8b-hexahydrocyclopenta[b]indole-7-carboxamide], the GI50 at BaF3(WT) is 3 nM; on BaF3 (T315I mutant), 21 nM.

Turning to `CC(=O)N[C@@H]1CC[C@H]2c3cc(C(=O)Nc4ccc(OC(F)(F)Cl)cc4)cc(-c4cncc(F)c4)c3N(C(C)C)[C@@H]12` [Compound 46-A], the GI50 on BaF3(WT) turned out to be 2 nM; at BaF3 (T315I mutant), 8 nM.

As for `CC(C)N1c2c(-c3ccn[nH]3)cc(C(=O)Nc3ccc(OC(F)(F)Cl)cc3)cc2C2CCC(NC(=O)N3CCN(C)CC3)C21` (stereo not shown) [Compound 14], the GI50 at BaF3(WT) came out at 41 nM; at BaF3 (T315I mutant), 208 nM.

For the compound `CC(C)N1c2c(-c3ccn[nH]3)cc(C(=O)Nc3ccc(OC(F)(F)Cl)cc3)cc2C2CCC(NC(=O)C3CN(C)C3)C21` (stereo not shown) [Compound 29, N-(4-(chlorodifluoromethoxy)phenyl)-4-isopropyl-3-(1-methylazetidine-3-carboxamido)-5-(1H-pyrazol-5-yl)-1,2,3,3a,4,8b-hexahydrocyclopenta[b]indole-7-carboxamide], the results for the GI50 at BaF3(WT) and at BaF3 (T315I mutant) were 177 nM and 1260 nM, respectively.

`CC(C)N1c2c(-c3ccn[nH]3)cc(C(=O)Nc3ccc(OC(F)(F)Cl)cc3)cc2C2CCC(NS(=O)(=O)C3CC3)C21` (stereo not shown) [Compound 24]: the GI50 on BaF3(WT) came to 17 nM; at BaF3 (T315I mutant), 114 nM.

For the compound `CC(=O)N[C@@H]1CC[C@H]2c3cc(C(=O)Nc4ccc(OC(F)(F)Cl)cc4)cc(-c4cccnn4)c3N(CC(C)(C)C)[C@@H]12` [Compound 59-A], the figures for the GI50 at BaF3(WT) and on BaF3 (T315I mutant) were 65 nM and 122 nM, respectively.

Turning to `CC(=O)N[C@@H]1CC[C@H]2c3cc(C(=O)Nc4ccc(OC(F)(F)Cl)cc4)cc(-c4cc(F)cc(C#N)c4)c3N(C(C)C)[C@@H]12` [Compound 48-A], the GI50 is 2 nM at BaF3(WT) and 14 nM at BaF3 (T315I mutant).

For the compound `CC(=O)NC1CCC2c3cc(C(=O)Nc4ccc(OC(F)(F)Cl)cc4)cc(-c4ccn[nH]4)c3N(CC(C)C)C12` (stereo not shown) [Compound 23], the GI50 was 10 nM at BaF3(WT) and 81 nM on BaF3 (T315I mutant).

For the compound `CC(C)N1c2c(-c3ccn[nH]3)cc(C(=O)Nc3ccc(OC(F)(F)Cl)cc3)cc2[C@@H]2CCS(=O)(=O)C[C@@H]21` [Compound 54-A, (4aS,9aR)-N-(4-(chlorodifluoromethoxy)phenyl)-9-isopropyl-8-(1H-pyrazol-5-yl)-1,3,4,4a,9,9a-hexahydrothiopyrano[3,4-b]indole-6-carboxamide 2,2-dioxide], the GI50 on BaF3(WT) worked out at 8 nM; on BaF3 (T315I mutant), 45 nM.

Consider `CC(=O)NC1CCC2c3cc(C(=O)Nc4ccc(OC(F)(F)Cl)cc4)cc(-c4ccn[nH]4)c3N(C3CC3)C12` (stereo not shown) [Compound 62], for which the GI50 was determined as 21 nM at BaF3(WT) and 41 nM at BaF3 (T315I mutant).

With `CC(C)N1c2c(-c3ccn[nH]3)cc(C(=O)Nc3ccc(OC(F)(F)Cl)cc3)cc2C2CCC(NC(=O)CCC(=O)O)C21` (stereo not shown) [Compound 39, 4-((7-((4-(chlorodifluoromethoxy)phenyl)carbamoyl)-4-isopropyl-5-(1H-pyrazol-5-yl)-1,2,3,3a,4,8b-hexahydrocyclopenta[b]indol-3-yl)amino)-4-oxobutanoic acid], the GI50 at BaF3(WT) is 2760 nM; on BaF3 (T315I mutant) it was 5710 nM.

As for `CC(C)N1c2c(-c3ccn[nH]3)cc(C(=O)Nc3ccc(OC(F)(F)Cl)cc3)cc2C2CCN(CC(F)(F)F)CC21` (stereo not shown) [Compound 41, N-(4-(chlorodifluoromethoxy)phenyl)-9-isopropyl-8-(1H-pyrazol-5-yl)-2-(2,2,2-trifluoroethyl)-2,3,4,4a,9,9a-hexahydro-1H-pyrido[3,4-b]indole-6-carboxamide], the GI50 at BaF3(WT) stood at 120 nM; on BaF3 (T315I mutant), 850 nM.

With `CC(C)N1c2c(-c3ccn[nH]3)cc(C(=O)Nc3ccc(OC(F)(F)Cl)cc3)cc2C2CCC(NS(=O)(=O)C3CCOCC3)C21` (stereo not shown) [Compound 25], the results for the GI50 at BaF3(WT) and on BaF3 (T315I mutant) were 15 nM and 183 nM, respectively.

As for `CC(=O)NC1CCC2c3cc(C(=O)Nc4ccc(OC(F)(F)Cl)cc4)cc(-c4ccn[nH]4)c3N(C(C)C)C12` (stereo not shown) [Compound 4, 3-acetamido-N-(4-(chlorodifluoromethoxy)phenyl)-4-isopropyl-5-(1H-pyrazol-5-yl)-1,2,3,3a,4,8b-hexahydrocyclopenta[b]indole-7-carboxamide], the GI50 at BaF3(WT) is 14 nM; at BaF3 (T315I mutant) it was 71 nM.

Regarding `COC(C)(C)CN1c2c(-c3ccn[nH]3)cc(C(=O)Nc3ccc(OC(F)(F)Cl)cc3)cc2C2CCC(NC(C)=O)C21` (stereo not shown) [Compound 63], the GI50 was 41 nM on BaF3(WT) and 52 nM on BaF3 (T315I mutant).

Take `CC(=O)N[C@@H]1CC[C@H]2c3cc(C(=O)Nc4ccc(OC(F)(F)Cl)cc4)cc(-c4cnc(C)nc4)c3N(CC(C)(C)C)[C@@H]12` [Compound 61-A]: the GI50 at BaF3(WT) came to 11 nM; at BaF3 (T315I mutant), 56 nM.

Turning to `CC(C)N1c2c(-c3ccn[nH]3)cc(C(=O)Nc3ccc(OC(F)(F)Cl)cc3)cc2C2CCC(NC(=O)N3CCOCC3)C21` (stereo not shown) [Compound 10], the GI50 at BaF3(WT) amounted to 31 nM; on BaF3 (T315I mutant), 29 nM.

As to `CNC(=O)NC1CCC2c3cc(C(=O)Nc4ccc(OC(F)(F)Cl)cc4)cc(-c4ccn[nH]4)c3N(C(C)C)C12` (stereo not shown) [Compound 11], the GI50 amounted to 53 nM at BaF3(WT) and 64 nM at BaF3 (T315I mutant).

`CC(=O)NC1CCC2c3cc(C(=O)Nc4ccc(OC(F)(F)Cl)cc4)cc(-c4cncnc4)c3N(C(C)C)C12` (stereo not shown) [Compound 20]: the figures for the GI50 at BaF3(WT) and on BaF3 (T315I mutant) were 9 nM and 44 nM, respectively.

Take `CC(=O)NC1CCC2c3cc(C(=O)Nc4ccc(OC(F)(F)Cl)cc4)cc(-c4cc[nH]n4)c3N(CC3(C)CC3)C12` (stereo not shown) [Compound 45]: the GI50 was determined as 18 nM on BaF3(WT) and 111 nM at BaF3 (T315I mutant).

Regarding `COc1cncc(-c2cc(C(=O)Nc3ccc(OC(F)(F)Cl)cc3)cc3c2N(C(C)C)[C@H]2[C@H](NC(C)=O)CC[C@@H]32)c1` [Compound 51-A], the GI50 on BaF3(WT) was 12 nM; on BaF3 (T315I mutant) it was 116 nM.

Take `CC(=O)N[C@H]1CC[C@@H]2c3cc(C(=O)Nc4ccc(OC(F)(F)Cl)cc4)cc(-c4cncnc4)c3N(C(C)C)[C@H]12` [Compound 20-B, (3S,3aS,8bR)-3-acetamido-N-(4-(chlorodifluoromethoxy)phenyl)-4-isopropyl-5-(pyrimidin-5-yl)-1,2,3,3a,4,8b-hexahydrocyclopenta[b]indole-7-carboxamide]: the GI50 at BaF3(WT) came out at 365 nM; on BaF3 (T315I mutant), 1380 nM.

For `CC(=O)NC1CCC2c3cc(C(=O)Nc4ccc(OC(F)(F)Cl)cc4)cc(-c4cccnc4)c3N(C(C)C)C12` (stereo not shown) [Compound 26], the GI50 was found to be 12 nM on BaF3(WT) and 65 nM on BaF3 (T315I mutant).

Take `CC(C)N1c2c(-c3ccn[nH]3)cc(C(=O)Nc3ccc(OC(F)(F)Cl)cc3)cc2C2CCC(N3CCCC3=O)C21` (stereo not shown) [Compound 35, N-(4-(chlorodifluoromethoxy)phenyl)-4-isopropyl-3-(2-oxopyrrolidin-1-yl)-5-(1H-pyrazol-5-yl)-1,2,3,3a,4,8b-hexahydrocyclopenta[b]indole-7-carboxamide]: the results for the GI50 on BaF3(WT) and on BaF3 (T315I mutant) were 12 nM and 55 nM, respectively.

For the compound `CC(C)N1c2c(-c3ccn[nH]3)cc(C(=O)Nc3ccc(OC(F)(F)Cl)cc3)cc2C2CCC(NS(=O)(=O)N(C)C)C21` (stereo not shown) [Compound 12], the GI50 on BaF3(WT) worked out at 10 nM; on BaF3 (T315I mutant), 216 nM.

With `CC(C)N1c2c(-c3ccn[nH]3)cc(C(=O)Nc3ccc(OC(F)(F)Cl)cc3)cc2C2CCC(N3CCNC3=O)C21` (stereo not shown) [Compound 38, N-(4-(chlorodifluoromethoxy)phenyl)-4-isopropyl-3-(2-oxoimidazolidin-1-yl)-5-(1H-pyrazol-5-yl)-1,2,3,3a,4,8b-hexahydrocyclopenta[b]indole-7-carboxamide], the GI50 at BaF3(WT) was 18 nM; at BaF3 (T315I mutant) it was 77 nM.

Take `CC(=O)N[C@@H]1CC[C@H]2c3cc(C(=O)Nc4ccc(OC(F)(F)Cl)cc4)cc(-c4cccc(C#N)c4)c3N(C(C)C)[C@@H]12` [Compound 66-A]: the values for the GI50 at BaF3(WT) and on BaF3 (T315I mutant) were 3 nM and 29 nM, respectively.

Take `CC(=O)N[C@@H]1CC[C@H]2c3cc(C(=O)Nc4ccc(OC(F)(F)Cl)cc4)cc(-c4ccn[nH]4)c3N(C(C)C)[C@@H]12` [Compound 4-A, (3R,3aR,8bS)-3-acetamido-N-(4-(chlorodifluoromethoxy)phenyl)-4-isopropyl-5-(1H-pyrazol-5-yl)-1,2,3,3a,4,8b-hexahydrocyclopenta[b]indole-7-carboxamide]: the GI50 on BaF3(WT) was 3 nM; at BaF3 (T315I mutant) it was 35 nM.

Consider `CC(=O)N[C@@H]1CC[C@H]2c3cc(C(=O)Nc4ccc(OC(F)(F)Cl)cc4)cc(-c4cncc(Cl)c4)c3N(C(C)C)[C@@H]12` [Compound 52-A], for which the GI50 on BaF3(WT) was 3 nM; at BaF3 (T315I mutant), 47 nM.
